Broadly, the TGI is the concentration giving total growth inhibition. A higher TGI goes with lower sensitivity of the cells. Usually GI50 stands for the concentration at which growth is held to half of that of the control.

The values below come from PubChem BioAssay (NCI).

Holding throughout (assay): DTP human tumour cell line panel, 48 h
Assay [1] relates to HT29 colon.
The subject of assay [2] is OVCAR-3 ovarian.
For assay [3], the system named is COLO 205 colon.
For assay [4], the system named is K-562 leukemia.
For assay [5], the system named is OVCAR-5 ovarian.
In assay [6] the test system is HOP-62 NSCLC.
In assay [7] the test system is SNB-75 CNS.
The test system of assay [8] is MDA-MB-231 breast.
Assay [9] concerns DU-145 prostate.

Molecules are shown by their SMILES.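 Compound exposure: 48 hours, 5 concentrations, 96-well plates. GI50 is the concentration that inhibits growth by half. TGI denotes the concentration required for complete inhibition of growth.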

Consider `O=C1C2=C(c3ccccc31)C(c1ccc(F)cc1)N1C(=O)CCSC1=N2` (configuration not stated), for which the TGI in assay [1], in [2], in [3], in assay [4], in [5] and in [6] was greater than 100 µM in each case. The molecule further gave a TGI in assay [7] greater than 100 µM.

Take `O=C1C2=C(c3ccccc31)C(c1ccc(Cl)cc1)NC(=S)N2` (configuration not stated): the TGI in [1] is 90.7 µM; in [2] it was 39.6 µM; in [3] it was 64.9 µM; in assay [4], 40.2 µM; in assay [5], greater than 100 µM; in assay [6], greater than 100 µM. This molecule registered a concentration for total growth inhibition (TGI) in assay [7] of 34 µM.

For `COc1cc(/C=C\c2cc(OC)c(OC)c(OC)c2)cc(NS(=O)(=O)c2cccc(Cl)c2)c1OC`, the GI50 was 0.0441 µM in assay [1]; 0.0346 µM in assay [2]; 0.259 µM in assay [8]; 0.261 µM in [3]; 0.0383 µM in assay [4]; 0.641 µM in [5]. Moreover, the GI50 in assay [6] is 3.16 µM; in [7] it was 0.0298 µM; in assay [9], 0.0676 µM. Besides, the TGI was greater than 100 µM in assay [1]; greater than 100 µM in assay [2]; greater than 100 µM in assay [8]; 0.851 µM in [3]; greater than 100 µM in [4]; greater than 100 µM in assay [5]. Besides, the TGI in [6], in assay [7] and in assay [9] was greater than 100 µM in each case.

Turning to `C(#Cc1ccccc1C#Cc1ccccn1)c1ccccn1`, the GI50 is 30.3 µM in assay [1]; 16.6 µM in assay [8]; 16.9 µM in assay [3]; 7.02 µM in [4]; 17.2 µM in [5]; 25.6 µM in [6]. Also, the GI50 in assay [7] was 18.5 µM; in [9], 19.8 µM. Also, the total growth inhibition concentration (TGI) in [1] is greater than 100 µM; in [8], 36.6 µM; in [3], 46.4 µM; in [4], 27.1 µM; in assay [5], 40.5 µM; in [6] it was greater than 100 µM. In addition, the TGI in [7] was 42.6 µM; in assay [9], 38 µM.

Consider `O=C(/C=C/c1ccccc1)CCc1c(O)c2ccccc2oc1=O`, for which the TGI in assay [1], in assay [2], in assay [8], in assay [3], in assay [4] and in [5] was greater than 100 µM throughout. The TGI in assay [7] and in assay [9] was greater than 100 µM in each case.

Turning to `Cc1cc(Cl)ccc1NC(=O)CCCC(=O)C(C(=O)c1ccccc1)c1ccccc1` (configuration not stated), the total growth inhibition concentration (TGI) in assay [1], in assay [2], in [3], in [4], in assay [5] and in [6] was greater than 100 µM in each case.

For the molecule `CC(=O)O[C@H]1C(=O)[C@@]2(C)C(C(OC(=O)c3ccccc3)[C@]3(O)CC(OC(=O)C(O)C(NC(=O)c4ccccc4)c4ccc(C)cc4)C(C)=C1C3(C)C)[C@]1(OC(C)=O)CO[C@@H]1C[C@@H]2O` (some centres not stated), the concentration for total growth inhibition (TGI) was 0.0861 µM in assay [1]; 0.407 µM in assay [3]; greater than 25 µM in assay [4]; 0.237 µM in assay [5]; 24.1 µM in assay [6]; 1.31 µM in assay [7].

For the molecule `C[C@H]1CCC/C=C/[C@@H]2C[C@H](O)C[C@H]2[C@H](O)[C@@H](SC2OC(CO)C(O)C(O)C2O)CC(=O)O1` (some centres not stated), the GI50 in assay [1] is 23 µM; in assay [2] it was greater than 100 µM; in [8], 26.9 µM; in assay [3] it was 19.4 µM; in assay [4] it was greater than 100 µM; in assay [5], 48 µM. Further, the results for the GI50 in assay [6], in assay [7] and in [9] were 98.9 µM, 53.2 µM and greater than 100 µM, respectively. Besides, the TGI in [1] was 58.8 µM; in assay [2] it was greater than 100 µM; in [8], 91 µM; in assay [3] it was 41.6 µM; in [4], greater than 100 µM; in [5] it was greater than 100 µM. The total growth inhibition concentration (TGI) in assay [6], in [7] and in [9] was greater than 100 µM in each case.

Take `C=C(C)[C@@H]1CC[C@]2(C)[C@H](CC=C3[C@@H]4[C@H](C)[C@@H](C)CC[C@]4(CO)CC[C@]32C)[C@@]1(C)CCCN`: the GI50 in assay [1] is 0.99 µM; in assay [2], 0.934 µM; in assay [8] it was 0.957 µM; in assay [3], 0.899 µM; in assay [4], 1.22 µM; in [5], 1.76 µM. The GI50 in [6] is 1.08 µM; in assay [7], 0.848 µM; in [9] it was 1.21 µM. In addition, the concentration for total growth inhibition (TGI) in [1] is 2.04 µM; in assay [2], 1.79 µM; in [8] it was 1.71 µM; in assay [3], 1.94 µM; in assay [4], 3.63 µM; in assay [5] it was 6.15 µM. For the same molecule, the total growth inhibition concentration (TGI) in [6] amounted to 2.36 µM; in [7], 3.62 µM; in assay [9], 3.01 µM.

`CCC(=O)OC1=CN2C(=NC(c3ccc(N)cc3)=CC2c2cc(OC)c(OC)c(OC)c2)S1` (configuration not stated): the GI50 in assay [1] was 3.82 µM; in [2], 2.47 µM; in assay [8], 4.39 µM; in [3], 3.72 µM; in [4] it was 3.47 µM; in assay [5], 4.04 µM. Also, the figures for the GI50 in assay [6], in [7] and in assay [9] were 4.79 µM, 5.12 µM and 3.58 µM, respectively. Also, the total growth inhibition concentration (TGI) in assay [1] is 14.2 µM; in assay [2], 5.56 µM; in [8], 21.3 µM; in assay [3], 10.7 µM; in [4], greater than 100 µM; in assay [5], 17.1 µM. In addition, the values for the TGI in assay [6], in assay [7] and in [9] were 15.1 µM, 23.3 µM and 13.1 µM, respectively.

`CCCCCCCCCCCCCCC(O)C1CCC(C(O)CCC(O)CCCCCC(O)CC2=CC(C)OC2=O)O1` (configuration not stated): the TGI was found to be 8.68 µM in assay [1]; 4.76 µM in assay [2]; 8.41 µM in assay [3]; 3.68 µM in [4]; 20.3 µM in assay [5]; 7.77 µM in [6]. This molecule had a TGI in [7] of 8.88 µM.

In the case of `N[C@H](C(=O)O)[C@@H](Cl)CC(=O)O`, the TGI in assay [1], in [2], in assay [3], in [4], in assay [5] and in assay [6] was greater than 100 µM throughout. Besides, in assay [7], the TGI is greater than 100 µM.

As to `Cc1ccc([N+](=O)[O-])cc1NC(=O)C(=O)C1CCC2=C(Sc3ccccc3N2)C1=O` (configuration not stated), the concentration for total growth inhibition (TGI) in assay [1] is greater than 100 µM; in [2], 90.8 µM; in [8], greater than 100 µM; in [3] it was greater than 100 µM; in assay [5] it was greater than 100 µM; in assay [6], greater than 100 µM. The total growth inhibition concentration (TGI) in assay [7] and in assay [9] was greater than 100 µM throughout.

For `O=C(O)c1cc2c(c3ccsc13)-c1ccccc1CC2`, the GI50 is 39.4 µM in assay [1]; 28.8 µM in assay [2]; 27.6 µM in [8]; 40.5 µM in assay [3]; 40.6 µM in [4]; 60.2 µM in assay [5]. Besides, the GI50 was 31.8 µM in [6], 86.2 µM in [7] and 44.2 µM in assay [9]. For the same molecule, the TGI in assay [1], in assay [2], in [8], in assay [3], in [4] and in assay [5] was greater than 100 µM in each case. For the same molecule, the total growth inhibition concentration (TGI) in assay [6], in [7] and in [9] was greater than 100 µM throughout.

As for `CC(=O)NS(=O)(=O)c1ccc(-n2nc(-c3ccccc3)cc2C2=CC(=O)C=CC2=O)cc1`, the GI50 in assay [1] was greater than 100 µM; in assay [2], greater than 100 µM; in [8], greater than 100 µM; in assay [3] it was greater than 100 µM; in assay [4], 57 µM; in assay [5], greater than 100 µM. In assay [6], the GI50 was greater than 100 µM. The TGI in [1], in assay [2], in assay [8], in assay [3], in [4] and in [5] was greater than 100 µM in each case. The same molecule had a TGI in [6] greater than 100 µM.

For `c1ccc(COc2cccc3cccnc23)cc1`, the TGI in [1], in [2], in assay [3], in assay [4], in [5] and in assay [6] was greater than 100 µM in each case. This molecule had a TGI in assay [7] greater than 100 µM.

Regarding `C/C=C/C(=O)[O-].N.N.N.N.N.[Co+3].[O-][Cl+3]([O-])([O-])[O-]`, the GI50 in assay [1], in assay [2], in assay [3], in assay [4], in assay [5] and in assay [6] was greater than 100 µM each time. The GI50 in [7] is 84.7 µM. For the same molecule, the TGI in assay [1], in [2], in [3], in assay [4], in assay [5] and in [6] was greater than 100 µM in each case. Moreover, in assay [7], the TGI is greater than 100 µM.

As to `CS(=O)(=O)Nc1cc(-c2ccc3ncnc(Nc4cccc(Cl)c4F)c3c2)cnc1Cl`, the GI50 was 3.3 µM in assay [1]; 1.84 µM in assay [2]; 2.1 µM in assay [8]; 4.23 µM in assay [3]; 4.2 µM in [4]; 2.17 µM in assay [5]. The GI50 in assay [6] is 2.48 µM; in assay [7], 0.463 µM; in [9], 3.69 µM. In addition, the TGI in assay [1] is 38.4 µM; in assay [2] it was 7.52 µM; in assay [8] it was 8.06 µM; in assay [3] it was 27.8 µM; in [4] it was greater than 100 µM; in assay [5], 19.1 µM. Also, the TGI in [6] was determined as 60.7 µM; in assay [7] it was 7.43 µM; in [9] it was 29 µM.

As for `Cc1ccc(C)c2c1CCc1cc3ccccc3nc1-2`, the concentration for total growth inhibition (TGI) in assay [1], in assay [2], in assay [3], in [4], in [5] and in assay [6] was greater than 100 µM throughout. In [7], this molecule yielded a concentration for total growth inhibition (TGI) greater than 100 µM.

As to `C[C@@H](c1ccccc1)N(CC#N)C1CCC[C@H]1O` (some centres not stated), the concentration for total growth inhibition (TGI) in [1], in [2], in assay [3], in assay [4], in assay [6] and in assay [7] was greater than 100 µM throughout.

As to `Cc1ccc(/C=C2\CN(Cc3cn(CCNc4ccnc5cc(Cl)ccc45)nn3)C/C(=C\c3ccc(C)cc3)C2=O)cc1`, the GI50 in [1] was 1.91 µM; in [2] it was 1.8 µM; in assay [8], 2.14 µM; in assay [3], 1.89 µM; in assay [5] it was 1.8 µM; in assay [6] it was 1.96 µM. For the same molecule, the GI50 is 1.61 µM in [7] and 1.76 µM in assay [9]. Moreover, the TGI in [1] was found to be 3.85 µM; in assay [2], 3.24 µM; in assay [8] it was 4.62 µM; in assay [3], 3.42 µM; in assay [5], 3.54 µM; in assay [6], 3.47 µM. In addition, the results for the TGI in [7] and in assay [9] were 3.53 µM and 3.17 µM, respectively.

Consider `CCC1(CC)C(=O)[N-]C(=O)[N-]C1=O.[Au+].[Au+].c1ccc([PH+](c2ccccc2)c2ccccc2)cc1.c1ccc([PH+](c2ccccc2)c2ccccc2)cc1`, for which the figures for the GI50 in [2], in assay [3] and in assay [5] were 1.31 µM, 1.74 µM and 1.68 µM, respectively. Also, the TGI in assay [2] came to 2.59 µM; in assay [3], 3.36 µM; in assay [5] it was 3.06 µM.

In the case of `O=C1OC(c2ccccc2)=N/C1=C/N1CCCC1C(=O)O` (configuration not stated), the TGI in assay [1], in [2], in [3], in [4], in assay [5] and in assay [6] was greater than 100 µM throughout. In [7], this molecule yielded a TGI greater than 100 µM.
